The target in the experiment is T1, human GnRH receptor (Homo sapiens, UniProt P30968).
T1 construct: The cDNA for the human GnRH receptor is cloned into the plasmid expression vector, pcDNA 3; expressed in transfected cells; host or cells: HEK 293 cells, stably transfected (pcDNA 3); membrane preparation
T1 sequence (P30968 1-328): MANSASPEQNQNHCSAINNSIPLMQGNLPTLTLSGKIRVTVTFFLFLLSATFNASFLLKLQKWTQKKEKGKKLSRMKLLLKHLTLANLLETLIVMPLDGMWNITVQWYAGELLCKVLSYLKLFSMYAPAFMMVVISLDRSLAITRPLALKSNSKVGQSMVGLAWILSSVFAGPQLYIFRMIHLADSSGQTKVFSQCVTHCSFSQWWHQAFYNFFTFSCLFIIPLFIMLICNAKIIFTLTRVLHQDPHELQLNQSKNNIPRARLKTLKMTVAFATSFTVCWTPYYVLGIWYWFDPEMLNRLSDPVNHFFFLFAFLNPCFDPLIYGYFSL
Kind of experiment: GnRH receptor competitive radioligand binding assay (125I-GnRH-A, HEK 293 cell membranes). As to conditions: compound at 10 μM. An excerpt: The cDNA for the human GnRH receptor is cloned into the plasmid expression vector, pcDNA 3 (In Vitrogen), and stably transfected in HEK 293 cells (a cell line developed by Dr. Stuart Sealfon, Mount Sinai Medical School, New York, N.Y.).
The human GnRH receptor (hGnRH) is cloned into pcDNA 3 (In Vitrogen), which provides high-level expression and a neomycin resistance marker. Lipofectamine (GIBCO BRL) is used to transfect HEK 293 cells with plasmid DNA. This method involves mixing the plasmid and reagent in serum-free medium, allowing DNA-liposome complexes to form, and overlaying cells with this solution. The HEK 293 cells are plated (seeded) on a 10-cm tissue culture dish at a density of 3×10^6 cells/dish the day before transfection. For each plate, 8 μg DNA plus 0.8 mL serum-free medium is mixed with 48 μL lipofectamine plus 0.8 mL serum-free medium, followed by incubation for 30 minutes at room temperature to allow DNA-liposome complexes to form. Serum-free medium is added to give a final volume of 6 mL/plate. The cells are rinsed twice with serum-free medium and overlayed with the DNA-liposome mixture. Five hours after transfection, an equal volume (6 mL) of medium containing 20% FBS (fetal bovine serum) is added. The cells are fed with fresh complete medium 18-24 hours after transfection. The cells are split 72 hours following transfection, at densities of 1:10 and 1:20. Stable tranformants are selected for by growth of the cells in antibiotic containing medium (G418, Sigma Chemical Company (also known as Geneticin)). Colonies are isolated and tested for receptor expression by radioligand binding and by measuring phosphoinositol turnover.
HEK 293 cells stably transfected with human GnRH receptors as described above are grown in MEM (minimal essential medium, available from Sigma Chemical Company) supplemented with 0.1% G418 (Sigma Chemical Company). Cells are homogenized in buffer A containing 50 mM Tris (pH 74.), 0.32M sucrose, 2 mM ethyleneglycol-bis(β-aminoethyl)-N,N,N′,N′-tetraacetic acid (EGTA), 1 mM phenylmethylsulfonyl fluoride (PMSF), 5 μg/mL aprotinen, 5 μg/mL Pepstatin A, and 1 μg/mL leupeptin. The homogenized cells are centrifuged at 4° C. at 20,000×g for 25 minutes, resuspended in buffer A, and recentrifuged at 4° C. at 20,000×g for an additional 25 minutes. Total membrane protein is determined with a BCA kit (Pierce, Rockford, Ill.). Membranes are stored at −70° C. at a final membrane protein concentration of 5 mg/mL.
The radioiodinated agonist analog of GnRH, [des-Gly^10, D-Ala^8]GnRH ethylamide (GnRH-A), is used as the labeled ligand. One μg of GnRH-A diluted in 0.1M acetic acid is added to an lodogen®-coated borosilicate glass tube pierce) containing 35 μL of 0.05M phosphate buffer (pH 7.4-7.6) and 1 mCi of Na[^125I]. The reaction mixture is vortexed and incubated for 1 minute at room temperature. After one minute, the mixture is vortexed again and allowed to incubate for an additional minute. Two mL of 0.5M acetic acid/1% BSA is added to the reaction tube, and the mixture is added to a C18 Sep-Pak cartridge. The cartridge is washed with subsequent washes of 5 mL H2O and 5 mL 0.5M acetic acid, and then eluted with 5×1 mL of 60% CH3CN/40% 0.5M acetic acid. The eluant is diluted with 3×volume of HPLC buffer A (0.1% TFA in H2O) and loaded onto a C18 column. The iodinated product is eluted over 20-25 minutes with a gradient of 25-100% CH3CN containing 0.1% TFA. The radioactive fractions (750 μL/fraction) are collected into clean polypropylene tubes containing 10 μL of 10% BSA. Fractions are assessed for biological activity by radioligand binding. Active fractions are utilized to screen the compounds for competitive binding assays.
HEK 293 cell membranes stably expressing hGnRHR (human GnRH receptors) are diluted to 0.5-1.0 mg/mL with assay buffer containing 50 mM HEPES (pH 7.4), 1 mM ethylenediarninetetraacetic acid (EDTA), 2.5 mM MgCl2, and 0.1% BSA. […]

The mark [1] stands for this setting: average of 1st and 2nd test, read-out: Average % Remaining (percent of specific binding remaining).
Where [2] appears, read: crude compounds, 125I-GnRH-A, lower value = higher inhibition, read-out: % Remaining 1st Test (percent of specific binding remaining).
[3] abbreviates: crude compounds, 125I-GnRH-A, lower value = higher inhibition, read-out: % Remaining 2nd Test (percent of specific binding remaining).

Like-named read-outs stand apart in the source and are kept apart here.

For the compound `Cc1cc2c(cc1CN(CCCCNC(=N)N)C(=O)c1ccco1)C(C)(C)CCC2(C)C` [Compound 30], the remaining activity at 10 µM reads like this: under setting [1], 33%; under setting [2], 29%; under setting [3], 37%.
In the case of `Cc1cc2c(cc1CN(CCCCNC(=N)N)C(=O)c1ccccc1)C(C)(C)CCC2(C)C` [Compound 31], the remaining activity at 10 µM runs as follows: under setting [1], 45%; under setting [2], 44%; under setting [3], 45%.
As for `Cc1cc2c(cc1CN(CCCCNC(=N)N)C(=O)c1ccc(Cl)nc1)C(C)(C)CCC2(C)C` [Compound 32], the remaining activity at 10 µM reads like this: under setting [1], 57%; under setting [2], 52%; under setting [3], 61%.
The corresponding values for `N=C(N)NCCCCN(Cc1ccc(OCc2ccccc2)c(OCc2ccccc2)c1)C(=O)C1CCCCC1` [Compound 33] are 59%, 52% and 65%.
Turning to `N=C(N)NCCCCN(Cc1ccc(OCc2ccccc2)c(OCc2ccccc2)c1)C(=O)c1cccc2ccccc12` [Compound 34], the remaining activity at 10 µM under setting [1] amounted to 51%, the remaining activity at 10 µM under setting [2] amounted to 45% and the remaining activity at 10 µM under setting [3] was 57%.
The like results for `CC(=O)N(CCCCNC(=N)N)Cc1ccc(OCc2ccccc2)c(OCc2ccccc2)c1` [Compound 35] were, in that order, 52%, 50% and 54%.
Take `CN(C)CCCOc1ccc(CN(Cc2cccc(CNC(=N)N)c2)C(=O)c2ccc3ccccc3c2)cc1` [Compound 36]: the remaining activity at 10 µM stood at 58% under setting [1], 56% under setting [2] and 59% under setting [3].
The like results for `N=C(N)NCc1cccc(CN(CC23CC=CCC2C2CC=CCC2O3)C(=O)C2CCCCC2)c1` (stereo not drawn) [Compound 37] were, in that order, 60%, 59% and 61%.
With `N=C(N)NCc1cccc(CN(CC23CC=CCC2C2CC=CCC2O3)C(=O)c2cccc3ccccc23)c1` (stereo not drawn) [Compound 38], the remaining activity at 10 µM by setting is: under setting [1], 57%; under setting [2], 59%; under setting [3], 55%.
The corresponding values for `N=C(N)NCc1cccc(CN(CC23CC=CCC2C2CC=CCC2O3)C(=O)c2ccc3ccccc3c2)c1` (stereo not drawn) [Compound 39] are 46%, 46% and 45%.
The corresponding values for `Cc1cc2c(cc1CN(Cc1cccc(CNC(=N)N)c1)C(=O)c1ccco1)C(C)(C)CCC2(C)C` [Compound 40] are 12%, 12% and 11%.
As for `CC(C)(C)c1ccc(CN(CC2CCCC(CNC(=N)N)C2)C(=O)c2cccc3ccccc23)cc1` (stereo not drawn) [Compound 41], the remaining activity at 10 µM runs as follows: under setting [1], 45%; under setting [2], 46%; under setting [3], 43%.
With `CC(C)(C)c1ccc(CN(CC2CCCC(CNC(=N)N)C2)C(=O)c2ccc3ccccc3c2)cc1` (stereo not drawn) [Compound 42], the remaining activity at 10 µM under setting [1] was found to be 58%, the remaining activity at 10 µM under setting [2] was found to be 54% and the remaining activity at 10 µM under setting [3] is 62%.
Turning to `CC(C)(C)c1ccc(CN(CC2CCCC(CNC(=N)N)C2)C(=O)c2cccs2)cc1` (stereo not drawn) [Compound 43], the remaining activity at 10 µM is, setting by setting: under setting [1], 50%; under setting [2], 47%; under setting [3], 53%.
The corresponding values for `CC(C)(C)c1ccc(CN(CC2CCCC(CNC(=N)N)C2)C(=O)c2ccccc2)cc1` (stereo not drawn) [Compound 44] are 60%, 58% and 62%.
The corresponding values for `CN(C)CCCOc1ccc(CN(CC2CCCC(CNC(=N)N)C2)C(=O)c2ccc3ccccc3c2)cc1` (stereo not drawn) [Compound 46] are 49%, 45% and 52%.
The like results for `N=C(N)NCC1CCCC(CN(CC23CC=CCC2C2CC=CCC2O3)C(=O)c2cccc3ccccc23)C1` (stereo not drawn) [Compound 47] were, in that order, 42%, 39% and 44%.
As for `N=C(N)NCC1CCCC(CN(CC23CC=CCC2C2CC=CCC2O3)C(=O)c2ccc3ccccc3c2)C1` (stereo not drawn) [Compound 48], the remaining activity at 10 µM was determined as 44% under setting [1], 48% under setting [2] and 40% under setting [3].
As to `N=C(N)NCC1CCCC(CN(CC23CC=CCC2C2CC=CCC2O3)C(=O)c2ccc(Cl)nc2)C1` (stereo not drawn) [Compound 49], the remaining activity at 10 µM under setting [1] was 58%, the remaining activity at 10 µM under setting [2] worked out at 53% and the remaining activity at 10 µM under setting [3] stood at 62%.
The like results for `N=C(N)NCC1CCCC(CN(Cc2cnc3ccccc3c2)C(=O)c2cccc3ccccc23)C1` (stereo not drawn) [Compound 50] were, in that order, 55%, 47% and 62%.
The like results for `N=C(N)NCC1CCCC(CN(Cc2cnc3ccccc3c2)C(=O)c2ccc3ccccc3c2)C1` (stereo not drawn) [Compound 51] were, in that order, 56%, 48% and 63%.
The corresponding values for `Cc1cc2c(cc1CN(CC1CCCC(CNC(=N)N)C1)C(=O)C1CCCCC1)C(C)(C)CCC2(C)C` (stereo not drawn) [Compound 52] are 58%, 57% and 59%.
As for `Cc1cc2c(cc1CN(CC1CCCC(CNC(=N)N)C1)C(=O)c1cccc3ccccc13)C(C)(C)CCC2(C)C` (stereo not drawn) [Compound 53], the remaining activity at 10 µM worked out at 51% under setting [1], 46% under setting [2] and 55% under setting [3].
The like results for `Cc1cc2c(cc1CN(CC1CCCC(CNC(=N)N)C1)C(=O)c1ccc3ccccc3c1)C(C)(C)CCC2(C)C` (stereo not drawn) [Compound 54] were, in that order, 54%, 49% and 59%.
The like results for `Cc1cc2c(cc1CN(CC1CCCC(CNC(=N)N)C1)C(=O)c1ccco1)C(C)(C)CCC2(C)C` (stereo not drawn) [Compound 55] were, in that order, -2%, -2% and -1%.
The corresponding values for `Cc1cc2c(cc1CN(CC1CCCC(CNC(=N)N)C1)C(=O)c1ccccc1)C(C)(C)CCC2(C)C` (stereo not drawn) [Compound 56] are 58%, 56% and 60%.
